Experimental data: PMC8881573, “Inhibition of SRP-dependent protein secretion by the bacterial alarmone (p)ppGpp” (Nature Communications, 2022)

What was measured:
(Bs)Ffh-NG = molecular target: T1, (Bs)Ffh-NG (Bacillus subtilis, UniProt P37105); assay: Microscale thermophoresis (MST) ligand binding; design: species or system B. subtilis; conditions: NG domain labeled with NT 647, 21 °C
T1 construct: purified NG domains of (Ec)Ffh, (Ec)FtsY and (Bs)Ffh; His6 (N); made in house; host or cells: E. coli Rosetta pLysS
T1 sequence (P37105 1-297 limits assumed): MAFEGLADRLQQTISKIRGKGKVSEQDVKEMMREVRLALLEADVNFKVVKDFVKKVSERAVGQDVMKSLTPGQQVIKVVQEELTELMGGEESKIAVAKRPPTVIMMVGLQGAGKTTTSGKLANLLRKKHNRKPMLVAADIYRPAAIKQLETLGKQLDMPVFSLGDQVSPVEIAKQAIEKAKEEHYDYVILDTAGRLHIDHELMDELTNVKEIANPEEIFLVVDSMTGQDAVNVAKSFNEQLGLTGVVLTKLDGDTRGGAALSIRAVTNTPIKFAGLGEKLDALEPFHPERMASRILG
Description: Ligand binding assays with purified NG domains of (Ec)Ffh, (Ec)FtsY and (Bs)Ffh proteins were carried out by microscale thermophoresis (MST)[80]. All experiments were performed on a Monolith NT.115 (NanoTemper Technologies GmbH, Munich, Germany; software: NanoTemper Control Version 2.0.2.29) at 21 °C (red LED power was set to 50–100% and infrared laser power to 75%). After labeling of primary amines within (Ec)Ffh, (Ec)FtsY, and (Bs)Ffh (50 µM each) with the dye NT 647 (according to the manufacturers protocol), the proteins were re-buffered in SEC buffer containing 20 mM HEPES-Na, 20 mM KCl, 20 mM MgCl2, 200 mM NaCl (final pH 7.5), 10 mg ml^−1 BSA and 0.007% Tween. Two-hundred nanomolar of (Ec)Ffh, (Ec)FtsY, and (Bs)Ffh were titrated with GDP, GTP, ppGpp, and pppGpp starting from a concentration ranging between 0.75 and 3 mM, respectively. At least six independent MST experiments per ligand and protein were recorded at 680 nm and analyzed using NanoTemper Analysis version 1.5.37 and 1.2.009, and Origin8G software suits.

SRP/FtsY = molecular target: T2, SRP/FtsY (Escherichia coli, UniProt P0AGD7+P10121); assay: YohP insertion into SecYEG-proteoliposomes with purified SRP/FtsY, proteinase K resistance; type: biochemical, E. coli; conditions: added together with SRP/FtsY (20 ng µL−1 each), 10 µM GTP
T2 construct: (Ec)Ffh (full-length) was concentrated on a 10 kDa centrifugal filter; (Ec)FtsY (full-length) was re-buffered in HT buffer; His-tag; made in house; host or cells: E. coli
T2 sequence (P0AGD7 whole entry): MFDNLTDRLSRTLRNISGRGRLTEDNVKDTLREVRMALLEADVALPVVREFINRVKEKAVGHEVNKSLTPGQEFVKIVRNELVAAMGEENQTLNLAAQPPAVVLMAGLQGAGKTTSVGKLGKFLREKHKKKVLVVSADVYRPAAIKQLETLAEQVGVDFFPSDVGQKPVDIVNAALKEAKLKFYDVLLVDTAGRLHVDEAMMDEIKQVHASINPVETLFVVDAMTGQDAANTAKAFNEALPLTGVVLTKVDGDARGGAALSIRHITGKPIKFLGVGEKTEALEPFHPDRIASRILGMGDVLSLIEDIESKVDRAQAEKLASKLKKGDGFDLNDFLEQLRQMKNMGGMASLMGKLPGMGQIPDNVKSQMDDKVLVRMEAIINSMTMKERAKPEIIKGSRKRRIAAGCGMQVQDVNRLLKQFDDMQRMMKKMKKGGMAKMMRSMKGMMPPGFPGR
T2 sequence (P10121 whole entry): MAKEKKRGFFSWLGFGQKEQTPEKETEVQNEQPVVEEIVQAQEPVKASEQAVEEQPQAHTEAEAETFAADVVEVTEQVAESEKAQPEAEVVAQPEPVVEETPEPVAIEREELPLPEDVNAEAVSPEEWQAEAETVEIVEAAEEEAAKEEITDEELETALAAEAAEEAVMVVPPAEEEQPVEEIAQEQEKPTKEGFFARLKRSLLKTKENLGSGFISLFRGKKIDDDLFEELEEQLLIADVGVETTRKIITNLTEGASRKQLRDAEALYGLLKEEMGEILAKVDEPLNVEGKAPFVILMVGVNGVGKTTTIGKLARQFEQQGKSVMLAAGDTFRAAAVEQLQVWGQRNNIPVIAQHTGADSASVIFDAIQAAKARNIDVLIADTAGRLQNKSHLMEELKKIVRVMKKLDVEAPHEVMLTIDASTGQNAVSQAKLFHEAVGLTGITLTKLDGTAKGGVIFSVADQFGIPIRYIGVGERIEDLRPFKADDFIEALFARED
Description: For protein transport assay, YohP cloned in pET19b was synthesized in vitro using a purified transcription/translation system composed of cytosolic translation factors (CTF) and high salt-washed ribosomes[35],[36]. The ^35S-Methionine/^35S-Cysteine labeling mix was obtained from Perkin Elmer (Wiesbaden, Germany). INVs of E. coli cells were prepared by sucrose gradient centrifugation of cell extracts as described[76] and resuspended in INV buffer (50 mM triethanolamine acetate, pH 7.5, 200 mM sucrose, 1 mM DTT). […] The supernatant containing YohP was then incubated with INV, liposomes or SecYEG-proteoliposomes for 10 min at 37 °C in the presence of 10 µM GTP. […] Next, the samples were denatured at 56 °C for 10 min in 35 μL of TCA loading dye (prepared by mixing one part of solution III (1 M dithiothreitol) with 4 parts of solution II (6.33% (w/v) SDS, 0.083 M Tris, 30% (v/v) glycerol and 0.053% (w/v) bromophenol blue) and 5 parts of solution I (0.2 M Tris, 0.02 M EDTA pH 8)) and analyzed after separation on a modified SDS-PAGE[35] by phosphor imaging. For quantification of YohP insertion, autoradiography samples were analyzed by using the ImageQuant (GE Healthcare) software. […] Mean values and SEM values were determined by using either Excel (Microsoft Corp.) or GraphPad Prism (GraphPad Prism Corp. San Diego). […]

Nc1nc2c(ncn2[C@@H]2O[C@H](COP(=O)(O)OP(=O)(O)O)[C@@H](OP(=O)(O)OP(=O)(O)O)[C@H]2O)c(=O)[nH]1 [ppGpp]
Kd ((Bs)Ffh-NG): 32.2 ± 7.5 µM | YohP insertion into SecYEG proteoliposomes (SRP/FtsY): reduced YohP insertion into SecYEG proteoliposomes drastically

Nc1nc2c(ncn2[C@@H]2O[C@H](COP(=O)(O)OP(=O)(O)OP(=O)(O)O)[C@@H](OP(=O)(O)OP(=O)(O)O)[C@H]2O)c(=O)[nH]1 [pppGpp]
Kd ((Bs)Ffh-NG): 27.2 ± 9.8 µM | YohP insertion into SecYEG proteoliposomes (SRP/FtsY): reduced YohP insertion into SecYEG proteoliposomes drastically
